# Reference: patent US8598365B2, “Herbicides” (Syngenta Limited, priority 2007, dated 2013)
# Legend:
# Assay type in all cases: in vivo
# [1] = system: Alopecurus myosuroides (ALOMY); assay: Example B pre-emergence herbicidal activity; conditions: 312 h, rate 250 g/ha, evaluated after 13 days, read-out: Pre-Emergence Activity ALOMY (100=total damage to plant; 0=no damage to plant)
# Description: (§1) Seeds of a variety of test species were sown in standard soil in pots. After cultivation for one day (pre-emergence) or after 8 days cultivation (post-emergence) under controlled conditions in a glasshouse (at 24/16° C., day/night; 14 hours light; 65% humidity), the plants were sprayed with an aqueous spray solution derived from the formulation of the technical active ingredient in acetone/water (50:50) solution containing 0.5% Tween 20 (polyoxyethelyene sorbitan monolaurate, CAS RN 9005-64-5).
# (§2) The test plants were then grown in a glasshouse under controlled conditions in a glasshouse (at 24/16° C., day/night; 14 hours light; 65% humidity) and watered twice daily. After 13 days for pre and post-emergence, the test was evaluated (100=total damage to plant; 0=no damage to plant).
# (§3) Alopecurus myosuroides (ALOMY), Avena fatua (AVEFA), Setaria faberi (SETFA), Echinochloa crus-galli (ECHCG), Solanum nigrum (SOLNI) and Amaranthus retoflexus (AMARE)
# [2] = system: Amaranthus retoflexus (AMARE); assay: Example B pre-emergence herbicidal activity; conditions: Amaranthus retroflexus, 312 h, rate 250 g/ha, evaluated after 13 days, read-out: Pre-Emergence Activity AMARE (100=total damage to plant; 0=no damage to plant)
# Description: as §1, §2, §3
# [3] = system: Echinochloa crus-galli (ECHCG); assay: Example B pre-emergence herbicidal activity; conditions: 312 h, rate 250 g/ha, evaluated after 13 days, read-out: Pre-Emergence Activity ECHCG (100=total damage to plant; 0=no damage to plant)
# Description: as §1, §2, §3
# Setaria faberi (SETFA) [4] = assay: Example B pre-emergence herbicidal activity; conditions: 312 h, rate 250 g/ha, evaluated after 13 days, read-out: Pre-Emergence Activity SETFA (100=total damage to plant; 0=no damage to plant)
# Description: as §1, §2, §3
# Avena fatua (AVEFA) [5] = assay: Example B pre-emergence herbicidal activity; conditions: 312 h, rate 250 g/ha, evaluated after 13 days, read-out: Pre-Emergence Activity AVEFA (100=total damage to plant; 0=no damage to plant)
# Description: as §1, §2, §3
# [6] = system: Alopecurus myosuroides (ALOMY); assay: Example B post-emergence herbicidal activity; conditions: 312 h, rate 250 g/ha, evaluated after 13 days, read-out: Post-emergence activity ALOMY (100=total damage to plant; 0=no damage to plant)
# Summary of the method: (§4)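 Plants in pots of standard soil receive an aqueous spray of the formulated active (acetone/water 50:50, 0.5% Tween 20), either one day after sowing or after eight days of growth. They then grow under glasshouse conditions and are scored for damage after 13 days (100 = total, 0 = none).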
# [7] = system: Amaranthus retoflexus (AMARE); assay: Example B post-emergence herbicidal activity; conditions: Amaranthus retroflexus, 312 h, rate 250 g/ha, evaluated after 13 days, read-out: Post-emergence activity AMARE (100=total damage to plant; 0=no damage to plant)
# Summary of the method: as §4
# [8] = system: Echinochloa crus-galli (ECHCG); assay: Example B post-emergence herbicidal activity; conditions: 312 h, rate 250 g/ha, evaluated after 13 days, read-out: Post-emergence activity ECHCG (100=total damage to plant; 0=no damage to plant)
# Summary of the method: as §4
# Setaria faberi (SETFA) [9] = assay: Example B post-emergence herbicidal activity; conditions: 312 h, rate 250 g/ha, evaluated after 13 days, read-out: Post-emergence activity SETFA (100=total damage to plant; 0=no damage to plant)
# Summary of the method: as §4
# Avena fatua (AVEFA) [10] = assay: Example B post-emergence herbicidal activity; conditions: 312 h, rate 250 g/ha, evaluated after 13 days, read-out: Post-emergence activity AVEFA (100=total damage to plant; 0=no damage to plant)
# Summary of the method: as §4
Structure (SMILES),pest or weed control at 250 g/ha [1],pest or weed control at 250 g/ha [2],pest or weed control at 250 g/ha [3],pest or weed control at 250 g/ha (Setaria faberi (SETFA) [4]),pest or weed control at 250 g/ha (Avena fatua (AVEFA) [5]),pest or weed control at 250 g/ha [6],pest or weed control at 250 g/ha [7],pest or weed control at 250 g/ha [8],pest or weed control at 250 g/ha (Setaria faberi (SETFA) [9]),pest or weed control at 250 g/ha (Avena fatua (AVEFA) [10])
Cc1sc(-c2ccc(Br)cn2)nc1C1C(=O)[C@@H]2CC[C@@H](C2)C1=O (some centres unmarked) [Compound T35],30%,0%,90%,100%,0%,100%,0%,100%,100%,80%
CCc1sc(-c2ccc(Cl)s2)nc1C1C(=O)[C@@H]2CC[C@@H](C2)C1=O (some centres unmarked) [Compound T36],60%,0%,60%,70%,20%,90%,0%,100%,100%,20%
Cc1cc(Br)ccc1-c1nc(C2C(=O)[C@@H]3CC[C@@H](C3)C2=O)c(C)s1 (some centres unmarked) [Compound T37],30%,0%,60%,90%,30%,100%,0%,100%,100%,90%
CCc1sc(-c2ccc(Br)cc2C)nc1C1C(=O)[C@@H]2CC[C@@H](C2)C1=O (some centres unmarked) [Compound T38],60%,0%,70%,100%,50%,100%,0%,100%,100%,100%
CCc1sc(-c2ccc(Br)cn2)nc1C1C(=O)[C@@H]2CC[C@@H](C2)C1=O (some centres unmarked) [Compound T39],90%,0%,100%,90%,0%,100%,0%,100%,100%,100%
O=C1C(c2nc(-c3ccc(Br)cc3)sc2CC(F)(F)F)C(=O)[C@H]2CC[C@@H]1C2 (some centres unmarked) [Compound T40],100%,0%,100%,100%,100%,100%,0%,100%,100%,100%
CCc1sc(COc2ccc(Cl)cc2)nc1C1C(=O)[C@@H]2CC[C@@H](C2)C1=O (some centres unmarked) [Compound T41],80%,0%,100%,40%,0%,100%,0%,100%,100%,70%
Cc1sc(-c2ccc(OC(F)F)cc2)nc1C1C(=O)[C@@H]2CC[C@@H](C2)C1=O (some centres unmarked) [Compound T42],100%,0%,100%,100%,0%,100%,0%,100%,100%,70%
